# Results from patent US7964573B2, “Regulating expression of transient receptor potential channel genes” (The Regents of the University of California, priority 2005, dated 2011).
# “Also recorded” adds a separate entry of the source.
# Key:
# TRPC6 [1] = assay: siRNA suppression of TRPC6 protein and mRNA levels in COS-7 cells; assay type: cell-based
# Text: (§1) In separate experiments, siRNA was used to prevent expression and translation of the TRPC6 gene in vitro. Several fragments of open reading frames in the TRPC6 gene were identified which suppressed expression of TRPC6 protein and mRNA levels. […] A scrambled siRNA vector served as a non-silencing control.
# TRPC6 [2] = assay: TRPC6 mRNA and protein expression in IPAH-PASMC after siRNA transfection (RT-PCR, Western blot); assay type: cell-based, human; conditions: for TRPC6 protein expression: IPAH-PASMC, transfected
# Protocol: (§2) Another aspect relates to the use of siRNA to inhibit the expression of TRPC6 gene. Human PASMC were isolated and cultured from normal subjects (normal PASMC) and subjects with IPAH (IPAH-PASMC). Levels of canonical TRP (TRPC) isoforms (mRNA and protein) were measured using RT-PCR and Western blot analysis. In addition, levels of TRPC6 in vivo were measured and compared with levels of Ki67, a nuclear protein expressed during S and G2/M phase of the cell cycle, using in situ immunofluorescence staining of proliferating PASMC (see Kuga et al. (1996) Circ. Res. 79:14-19). Cell cycle phase was determined by BrdU uptake and by [^3H]-thymidine incorporation into DNA. PASMC were incubated with [^3H]-thymidine for 16 hours following 24 hours of growth arrest and 48 hours of growth induction and measuring percent extent of radiolabel incorporation into precipitated DNA.
# as §1
# IPAH-PASMC = assay: [3H]-thymidine incorporation (proliferation) in IPAH-PASMC; assay type: cell-based, human; conditions: proliferating IPAH-PASMC, transfected
# Protocol: as §2, §1
substance,measurement,setting,value
"TRPC6 siRNA-2: siRNA against the TRPC6 gene, sequence AAGGTCTTTATGCAATTGCTG (SEQ ID NO: 5) (listed as DNA, chemistry not given here)",suppression of expression of TRPC6 protein and mRNA levels,TRPC6 [1],most effective
same,TRPC6 protein expression,TRPC6 [2],significantly decreased; also recorded: attenuates
same,TRPC6 protein expression,TRPC6 [2]; listed as TRPC6 siRNA (SEQ ID NO: 5),significantly inhibits
same,TRPC6 mRNA expression level,TRPC6 [2]; PASMC from patients with IPAH,significantly inhibits
same,[3H]-thymidine incorporation (proliferation),IPAH-PASMC; listed as TRPC6-siRNA,markedly attenuated
same,[3H]-thymidine incorporation (proliferation),IPAH-PASMC; listed as TRPC6 siRNA,significantly decreased; also recorded: attenuates
